Several values for one entry are separate records, joined by “and”; a condition that tells them apart may be missing. Equal entries are not always repeated.
Conditions: Liquid, Vibrating tube method

CCCCCC(=O)OCC(COC(=O)CCCCC)(COC(=O)CCCCC)COC(=O)CCCCC [pentaerythritol tetrahexanoate]
Conditions | mass density
343.15 K, 29943 kPa | 978.1 kg/m3
343.15 K, 29977 kPa | 978.2 kg/m3
343.15 K, 30005 kPa | 978.1 kg/m3
343.15 K, 30034 kPa | 978.2 kg/m3
343.15 K, 30068 kPa | 978.2 kg/m3
343.15 K, 34037 kPa | 980.7 kg/m3 and 980.8 kg/m3
343.15 K, 34038 kPa | 980.6 kg/m3
343.15 K, 34070 kPa | 980.7 kg/m3
343.15 K, 34080 kPa | 980.7 kg/m3
343.15 K, 34257 kPa | 980.8 kg/m3
343.15 K, 34258 kPa | 980.9 kg/m3
343.15 K, 34259 kPa | 981 kg/m3 and 980.9 kg/m3
343.15 K, 34260 kPa | 980.7 kg/m3 and 980.8 kg/m3
343.15 K, 34261 kPa | 980.8 kg/m3
343.15 K, 34262 kPa | 980.8 kg/m3 and 980.9 kg/m3
343.15 K, 34263 kPa | 980.7 kg/m3
343.15 K, 34264 kPa | 980.9 kg/m3 and 980.8 kg/m3
343.15 K, 34271 kPa | 980.8 kg/m3
343.15 K, 34272 kPa | 980.9 kg/m3
343.15 K, 34279 kPa | 980.9 kg/m3 and 981 kg/m3
343.15 K, 34280 kPa | 980.8 kg/m3 and 980.9 kg/m3
343.15 K, 34281 kPa | 980.9 kg/m3
343.15 K, 34282 kPa | 980.8 kg/m3 and 980.9 kg/m3
343.16 K, 205.2 kPa | 957.2 kg/m3
343.16 K, 205.3 kPa | 957.3 kg/m3
343.16 K, 205.5 kPa | 957.1 kg/m3 and 957.3 kg/m3
343.16 K, 205.7 kPa | 957.3 kg/m3
343.16 K, 205.9 kPa | 957.3 kg/m3 and 957.2 kg/m3
343.16 K, 206 kPa | 957.2 kg/m3 and 957.3 kg/m3
343.16 K, 206.2 kPa | 957.2 kg/m3 and 957.3 kg/m3
343.16 K, 206.4 kPa | 957.3 kg/m3 and 957.2 kg/m3
343.16 K, 206.6 kPa | 957.2 kg/m3
343.16 K, 206.7 kPa | 957.2 kg/m3
343.16 K, 207.1 kPa | 957.3 kg/m3
343.16 K, 207.4 kPa | 957.3 kg/m3 and 957.1 kg/m3
343.16 K, 207.6 kPa | 957.2 kg/m3 and 957.1 kg/m3
343.16 K, 207.8 kPa | 957.3 kg/m3
343.16 K, 207.9 kPa | 957.3 kg/m3 and 957.2 kg/m3
343.16 K, 208 kPa | 957.1 kg/m3 and 957.3 kg/m3
343.16 K, 208.1 kPa | 957.2 kg/m3 and 957.3 kg/m3
343.16 K, 208.5 kPa | 957.4 kg/m3 and 957.2 kg/m3 and 957.3 kg/m3
343.16 K, 208.6 kPa | 957.2 kg/m3 and 957.1 kg/m3
343.16 K, 208.7 kPa | 957.2 kg/m3
343.16 K, 209.9 kPa | 957.1 kg/m3
343.16 K, 210 kPa | 957.4 kg/m3 and 957.2 kg/m3
343.16 K, 210.2 kPa | 957.4 kg/m3
343.16 K, 210.4 kPa | 957.2 kg/m3
343.16 K, 210.6 kPa | 957.2 kg/m3
343.16 K, 210.9 kPa | 957.2 kg/m3
343.16 K, 211.1 kPa | 957.3 kg/m3 and 957.2 kg/m3
343.16 K, 211.3 kPa | 957.2 kg/m3 and 957.3 kg/m3
343.16 K, 211.4 kPa | 957.3 kg/m3
343.16 K, 211.6 kPa | 957.2 kg/m3
343.16 K, 211.8 kPa | 957.2 kg/m3
343.16 K, 211.9 kPa | 957.4 kg/m3 and 957.2 kg/m3 and 957.5 kg/m3
343.16 K, 212.1 kPa | 957 kg/m3
343.16 K, 212.3 kPa | 957.3 kg/m3
343.16 K, 212.6 kPa | 957.3 kg/m3
343.16 K, 214.2 kPa | 957.2 kg/m3 and 957.4 kg/m3
343.16 K, 214.4 kPa | 957.2 kg/m3
343.16 K, 214.5 kPa | 957.3 kg/m3
343.16 K, 214.6 kPa | 957.2 kg/m3
343.16 K, 214.7 kPa | 957.2 kg/m3
343.16 K, 214.9 kPa | 957.3 kg/m3 and 957.2 kg/m3
343.16 K, 215.1 kPa | 957.2 kg/m3
343.16 K, 215.8 kPa | 957.2 kg/m3
343.16 K, 216.1 kPa | 957.3 kg/m3 and 957.1 kg/m3
343.16 K, 216.3 kPa | 957.3 kg/m3 and 957.4 kg/m3
343.16 K, 216.8 kPa | 957.4 kg/m3
343.16 K, 217 kPa | 957.3 kg/m3 and 957.2 kg/m3
343.16 K, 217.5 kPa | 957.4 kg/m3 and 957.3 kg/m3
343.16 K, 217.7 kPa | 957.1 kg/m3 and 957.5 kg/m3 and 957.2 kg/m3
343.16 K, 217.9 kPa | 957.3 kg/m3 and 957.2 kg/m3
343.16 K, 218 kPa | 957.2 kg/m3 and 957.3 kg/m3
343.16 K, 218.2 kPa | 957.3 kg/m3 and 957.2 kg/m3
343.16 K, 218.6 kPa | 957.3 kg/m3 and 957.2 kg/m3
343.16 K, 218.7 kPa | 957.4 kg/m3
343.16 K, 219.6 kPa | 957.3 kg/m3
343.16 K, 219.8 kPa | 957.3 kg/m3
343.16 K, 221 kPa | 957.2 kg/m3
343.16 K, 221.2 kPa | 957.2 kg/m3 and 957.3 kg/m3
343.16 K, 221.3 kPa | 957.3 kg/m3
343.16 K, 221.5 kPa | 957.2 kg/m3
343.16 K, 221.7 kPa | 957.1 kg/m3 and 957.3 kg/m3
343.16 K, 221.9 kPa | 957.2 kg/m3
343.16 K, 222.1 kPa | 957.3 kg/m3
343.16 K, 222.2 kPa | 957.3 kg/m3 and 957.2 kg/m3
343.16 K, 222.4 kPa | 957.3 kg/m3
343.16 K, 222.6 kPa | 957.3 kg/m3 and 957.2 kg/m3
343.16 K, 224.6 kPa | 957.2 kg/m3
343.16 K, 224.8 kPa | 957.1 kg/m3
343.16 K, 225.2 kPa | 957.3 kg/m3
343.16 K, 225.5 kPa | 957.3 kg/m3 and 957.2 kg/m3
343.16 K, 225.7 kPa | 957.2 kg/m3
343.16 K, 226 kPa | 957.2 kg/m3
343.16 K, 226.2 kPa | 957.2 kg/m3
343.16 K, 226.4 kPa | 957.1 kg/m3
343.16 K, 226.6 kPa | 957.3 kg/m3
343.16 K, 226.7 kPa | 957.2 kg/m3
343.16 K, 227.3 kPa | 957.3 kg/m3
343.16 K, 227.4 kPa | 957.3 kg/m3
343.16 K, 227.6 kPa | 957.3 kg/m3
343.16 K, 227.8 kPa | 957.3 kg/m3
343.16 K, 227.9 kPa | 957.2 kg/m3
343.16 K, 228 kPa | 957.3 kg/m3 and 957.2 kg/m3
343.16 K, 228.1 kPa | 957.4 kg/m3
343.16 K, 228.3 kPa | 957.1 kg/m3 and 957.2 kg/m3
343.16 K, 228.8 kPa | 957.2 kg/m3 and 957.3 kg/m3
343.16 K, 229 kPa | 957.3 kg/m3
343.16 K, 229.2 kPa | 957.3 kg/m3 and 957.2 kg/m3
343.16 K, 229.3 kPa | 957.2 kg/m3
343.16 K, 229.7 kPa | 957.1 kg/m3 and 957.3 kg/m3
343.16 K, 229.9 kPa | 957.3 kg/m3
343.16 K, 230.1 kPa | 957.4 kg/m3
343.16 K, 230.4 kPa | 957.3 kg/m3
343.16 K, 230.6 kPa | 957.2 kg/m3
343.16 K, 230.7 kPa | 957.2 kg/m3
343.16 K, 230.9 kPa | 957.3 kg/m3
343.16 K, 231.4 kPa | 957.1 kg/m3
343.16 K, 239.3 kPa | 957.2 kg/m3
343.16 K, 239.4 kPa | 957.2 kg/m3
343.16 K, 239.6 kPa | 957.3 kg/m3
343.16 K, 239.8 kPa | 957.2 kg/m3
343.16 K, 239.9 kPa | 957.3 kg/m3
343.16 K, 241.9 kPa | 957.3 kg/m3
343.16 K, 246.2 kPa | 957.2 kg/m3
343.16 K, 246.5 kPa | 957.2 kg/m3
343.16 K, 246.9 kPa | 957.2 kg/m3
343.16 K, 247.1 kPa | 957.2 kg/m3
343.16 K, 247.2 kPa | 957.3 kg/m3
343.16 K, 247.4 kPa | 957.3 kg/m3
343.16 K, 247.6 kPa | 957.2 kg/m3 and 957.3 kg/m3
343.16 K, 247.8 kPa | 957.2 kg/m3 and 957.3 kg/m3
343.16 K, 247.9 kPa | 957.4 kg/m3 and 957.3 kg/m3
343.16 K, 248.1 kPa | 957.4 kg/m3
343.16 K, 248.3 kPa | 957.3 kg/m3
343.16 K, 248.6 kPa | 957.3 kg/m3
343.16 K, 248.8 kPa | 957.3 kg/m3 and 957.2 kg/m3
343.16 K, 249 kPa | 957.2 kg/m3
343.16 K, 249.2 kPa | 957.2 kg/m3
343.16 K, 249.8 kPa | 957.2 kg/m3
343.16 K, 250.4 kPa | 957.2 kg/m3
343.16 K, 250.6 kPa | 957.3 kg/m3
343.16 K, 250.7 kPa | 957.1 kg/m3
343.16 K, 250.9 kPa | 957.3 kg/m3 and 957.2 kg/m3

— the NIST ThermoML archive (doi:10.1021/je060271a)
